Source: ChEMBL document CHEMBL3638939, “Tetrahydroisoquinolines, pharmaceutical compositions containing them, and their use in therapy” (2014)
pIC50, pKi: −log10 of the molar value.

Columns and labels:
[1] = target: T1, Sodium- and chloride-dependent glycine transporter 1 (Homo sapiens, UniProt P48067); test: Glycine Uptake Assay: [3H]-Glycine uptake into recombinant CHO cells expressing human GlyT1: Human GlyT1c expressing recombinant hGlyT1c_5_CHO cells were plated at 20,000 cells per well in 96 well Cytostar-T scintillation microplates (Amersham Biosciences) and cultured to sub-confluency for 24 h. For glycine uptake assays the culture medium was aspirated and the cells were washed once with 100 ul HBSS (Gibco BRL, #14025-050) with 5 mM L-Alanine (Merck #1007). 80 ul HBSS buffer were added, followed by 10 ul inhibitor or vehicle (10% DMSO) and 10 ul [3H]-glycine (TRK71, Amersham Biosciences) to a final concentration of 200 nM for initiation of glycine uptake. The plates were placed in a Wallac Microbeta (PerkinElmer) and continuously counted by solid phase scintillation spectrometry during up to 3 hours. Nonspecific uptake was determined in the presence of 10 uM Org2 4598. IC50 calculations were made by four-parametric logistic nonlinear regressi on analysis (GraphPad Prism).; type: cell-based
T1 sequence (P48067 whole entry): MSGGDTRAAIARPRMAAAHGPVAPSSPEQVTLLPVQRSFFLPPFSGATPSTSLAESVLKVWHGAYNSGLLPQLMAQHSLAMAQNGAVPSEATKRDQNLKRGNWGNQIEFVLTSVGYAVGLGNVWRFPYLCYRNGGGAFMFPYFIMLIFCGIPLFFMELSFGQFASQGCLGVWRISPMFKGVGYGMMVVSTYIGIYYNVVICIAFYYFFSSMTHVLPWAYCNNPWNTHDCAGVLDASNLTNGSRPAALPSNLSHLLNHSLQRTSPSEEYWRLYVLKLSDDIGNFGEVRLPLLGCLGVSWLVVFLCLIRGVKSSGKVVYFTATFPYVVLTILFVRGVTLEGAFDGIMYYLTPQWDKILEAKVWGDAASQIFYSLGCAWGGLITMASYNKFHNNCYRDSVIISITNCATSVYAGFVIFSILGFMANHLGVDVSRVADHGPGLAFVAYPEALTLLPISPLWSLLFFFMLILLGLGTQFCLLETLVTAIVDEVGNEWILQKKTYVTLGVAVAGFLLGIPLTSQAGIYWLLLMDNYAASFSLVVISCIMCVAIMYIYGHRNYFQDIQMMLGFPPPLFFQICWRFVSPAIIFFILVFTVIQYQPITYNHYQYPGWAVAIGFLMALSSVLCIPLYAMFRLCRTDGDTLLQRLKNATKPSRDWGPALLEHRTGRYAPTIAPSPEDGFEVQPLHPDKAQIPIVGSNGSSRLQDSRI

[2] = target: T1, Sodium- and chloride-dependent glycine transporter 1; test: Radioligand Binding Assay: Radioligand binding to human GlyT1c transporter-expressing membranes was carried out as described in Mezler et al., Molecular Pharmacology 74:1705-1715, 2008.More specifically, [3H]-(R)-NPTS radioligand binding to human GlyT1c transporter-expressing membranes was measured in duplicate in a total volume of 200 ul in 96-well plates. To 100 ul of membrane suspension (yielding a final membrane protein concentration of 50 ug/ml) in assay buffer (120 mM NaCl, 2 mM KCl, 10 mM Hepes, 1 mM MgCl2, 1 mM CaCl2, pH 7.5) 80 ul of [3H]-(R)-NPTS (0.5 nM final) were added in assay buffer. For competition experiments 10 ul of buffer or unlabeled compound solution obtained from dilution series of test compounds in DMSO followed. An intermediate 1:10 dilution in assay buffer yielded a final DMSO concentration of 1%. Non-specific binding was determined in the presence of 10 uM Org24598 (or its racemate Org24461) for [3H]-(R)-NPTS.

pIC50 [1]	pKi [2]	SMILES
> 4.00	> 5.00	O=C1c2ccccc2C(=O)N1CCS(=O)(=O)NCCOc1ccc2c(c1)C(C1(c3ccc(Cl)cc3)CCC1)NCC2 (stereo not given)
	> 5.00	Cc1oncc1S(=O)(=O)NCCOc1ccc2c(c1)C(C1(c3ccc(Cl)cc3)CCC1)NCC2 (stereo not given)
> 7.00	> 7.00	CCCS(=O)(=O)NCCOc1ccc2c(c1)C(C1(c3cccc(F)c3)CCC1)NCC2 (stereo not given)
